Measured values published in US12649751B2 (Arcus Biosciences, Inc., priority 2022, dated 2026).

The compounds below were run against HPK1 (Homo sapiens, UniProt Q92918) (assay: HPK1 Biochemical Assay (ADP-Glo luminescence; low ATP 10 μM or high ATP 200 μM)). Settings: 2 nM HPK1, 10 μM ATP; read-out: Biochemical Potency (low ATP).
Procedure: Dose-response assays were performed in Corning® Low Volume 384-well assay plates containing 100 nL of 22 serial 2-fold compound dilutions. Wells containing DMSO alone were used as negative control. A kinase mixture (5 μL) containing 2 nM HPK1 (or 5 nM for high ATP assay) in assay buffer (50 mM Hepes pH 7.4, 10 mM MgCl2, 0.01% Brij-15, 0.01% bovine serum albumin, and 1 mM dithiothreitol) was added to the assay plates and incubated at 25° C. for 1 hour. Wells without HPK1 were used as positive control. A […] of 10 μM ATP (or 200 μM for high ATP) and 0.2 μg/μL […] was then added to the wells, resulting in a 10 μL total reaction volume. Following incubation of the assay plates at 25° C. for 1 hour, 10 μL of ADP-Glo reagent was added to the wells and the plates were incubated at 25° C. for a further 40 minutes (or 1 hour for high ATP assay). Finally, 20 μL of Kinase Detection Reagent was added, and the plates were incubated for another 30 minutes at 25° C. An Envision plate reader was then used to detect the luminescence signals. IC50 values were determined by fitting the data to a standard 4-parameter logistic equation. The results are summarized in the Biochemical Potency columns of Tables 4 and 5 below (Biochemical Potency (high ATP); Biochemical Potency (low ATP)).

Chain of HPK1 (Q92918 whole entry, species assumed): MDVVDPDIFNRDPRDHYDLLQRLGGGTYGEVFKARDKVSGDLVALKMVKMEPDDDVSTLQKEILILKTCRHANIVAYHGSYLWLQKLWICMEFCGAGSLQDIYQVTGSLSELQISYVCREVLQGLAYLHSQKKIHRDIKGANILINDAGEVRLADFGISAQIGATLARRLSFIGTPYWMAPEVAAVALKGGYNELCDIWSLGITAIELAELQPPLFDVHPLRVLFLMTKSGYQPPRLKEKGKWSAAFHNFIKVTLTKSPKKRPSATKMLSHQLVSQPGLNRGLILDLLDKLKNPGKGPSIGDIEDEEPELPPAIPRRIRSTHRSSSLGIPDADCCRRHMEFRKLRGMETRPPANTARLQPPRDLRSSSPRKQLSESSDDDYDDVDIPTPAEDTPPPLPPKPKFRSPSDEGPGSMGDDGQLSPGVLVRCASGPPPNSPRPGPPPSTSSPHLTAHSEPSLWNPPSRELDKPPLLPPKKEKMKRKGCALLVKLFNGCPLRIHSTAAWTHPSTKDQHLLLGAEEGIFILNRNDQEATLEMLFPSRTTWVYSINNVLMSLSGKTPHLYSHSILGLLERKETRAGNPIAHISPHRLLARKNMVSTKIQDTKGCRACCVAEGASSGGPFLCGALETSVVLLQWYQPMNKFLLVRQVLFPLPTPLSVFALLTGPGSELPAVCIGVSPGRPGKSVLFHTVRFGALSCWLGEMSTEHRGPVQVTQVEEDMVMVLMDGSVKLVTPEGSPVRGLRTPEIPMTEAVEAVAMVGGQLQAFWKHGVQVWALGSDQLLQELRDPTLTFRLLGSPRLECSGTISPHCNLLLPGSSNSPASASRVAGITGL

Q: With `Cc1cccnc1-c1nc2cc(Nc3ccc(C)c(N4CCC[C@H]4CN)n3)ncc2s1` [Example 72, 6-[(2S)-2-(Aminomethyl)pyrrolidin-1-yl]-5-methyl-N-[2-(3-methylpyridin-2-yl)-[1,3]thiazolo[5,4-c]pyridin-6-yl]pyridin-2-amine] as the compound, how does the IC50 read?
A: The IC50 was less than 100 nM.

Q: `Cc1cccnc1-c1nc2cc(Nc3ccc(C4CCOCC4)c(CN[C@@H]4CCOC4)n3)ncc2s1` [Example 215, N-[2-(3-Methylpyridin-2-yl)-[1,3]thiazolo[5,4-c]pyridin-6-yl]-5-(oxan-4-yl)-6-({[(3R)-oxolan-3-yl]amino}methyl)pyridin-2-amine] was tested. Which IC50 did it give?
A: Its IC50 is less than 100 nM.

Q: `CN1C[C@@H]2C[C@H]1CN2c1cncc(Nc2cc3nc(-c4ccncc4)sc3cn2)n1` [Example 146, 6-[(1S,4S)-5-Methyl-2,5-diazabicyclo[2.2.1]heptan-2-yl]-N-[2-(pyridin-4-yl)-[1,3]thiazolo[5,4-c]pyridin-6-yl]pyrazin-2-amine] was tested. Which IC50 did it give?
A: The IC50 was less than 100 nM.

Q: With `Cc1cc(Nc2cc3nc(-c4cccnc4C)sc3cn2)nc(O[C@H]2CCNC2)c1` [Example 179, 4-Methyl-N-[2-(2-methylpyridin-3-yl)-[1,3]thiazolo[5,4-c]pyridin-6-yl]-6-[(3S)-pyrrolidin-3-yloxy]pyridin-2-amine] as the compound, how does the IC50 read?
A: Its IC50 is less than 100 nM.

Q: With `Cc1cccnc1-c1nc2cc(Nc3cccc(N4C5CC4CN(C)C5)n3)ncc2s1` [Example 99, 6-{3-Methyl-3,6-diazabicyclo[3.1.1]heptan-6-yl}-N-[2-(3-methylpyridin-2-yl)-[1,3]thiazolo[5,4-c]pyridin-6-yl]pyridin-2-amine] as the compound, how does the IC50 read?
A: Its IC50 is 1000 to 5000 nM.

Q: With `Cc1cccc(C)c1-c1nc2cc(Nc3ccc(N4CCC(F)(F)C4)c(CN4CCCC4)n3)ncc2s1` [Example 10, 5-(3,3-Difluoropyrrolidin-1-yl)-N-[2-(2,6-dimethylphenyl)-[1,3]thiazolo[5,4-c]pyridin-6-yl]-6-[(pyrrolidin-1-yl)methyl]pyridin-2-amine] as the compound, how does the IC50 read?
A: The IC50 was less than 100 nM.

Q: For `CN1C[C@@H]2C[C@H]1CN2c1nccc(Nc2cc3nc(-c4ccnc5c4cnn5C)sc3cn2)n1` [Example 294, N-(2-{1-methyl-1H-pyrazolo[3,4-b]pyridin-4-yl}-[1,3]thiazolo[5,4-c]pyridin-6-yl)-2-[(1 S,4S)-5-methyl-2,5-diazabicyclo[2.2.1]heptan-2-yl]pyrimidin-4-amine], which IC50 is on record?
A: Its IC50 is less than 100 nM.

Q: Which IC50 does the source give for `CN1C[C@@H]2C[C@H]1CN2c1cncc(Nc2cc3nc(-c4cc(N5CC[C@H](F)C5)ccn4)sc3cn2)n1` [Example 124, N-(2-{4-[(3S)-3-Fluoropyrrolidin-1-yl]pyridin-2-yl}-[1,3]thiazolo[5,4-c]pyridin-6-yl)-6-[(1S,4S)-5-methyl-2,5-diazabicyclo[2.2.1]heptan-2-yl]pyrazin-2-amine] here?
A: Its IC50 is less than 100 nM.

Q: With `Cc1cccnc1-c1nc2cc(Nc3ccc(C)c(N4CC[C@H](N)C4)n3)ncc2s1` [Example 75, 6-[(3S)-3-Aminopyrrolidin-1-yl]-5-methyl-N-[2-(3-methylpyridin-2-yl)-[1,3]thiazolo[5,4-c]pyridin-6-yl]pyridin-2-amine] as the compound, how does the IC50 read?
A: Its IC50 is less than 100 nM.

Q: For `CN1C[C@@H]2C[C@H]1CN2c1nccc(Nc2cc3nc(-c4cccc(C(C)(C)O)c4)sc3cn2)n1` [Example 122, 2-{3-[6-({2-[(1S,4S)-5-Methyl-2,5-diazabicyclo[2.2.1]heptan-2-yl]pyrimidin-4-yl}amino)-[1,3]thiazolo[5,4-c]pyridin-2-yl]phenyl}propan-2-ol], which IC50 is on record?
A: Its IC50 is less than 100 nM.

Q: For `CN1C[C@@H]2C[C@H]1CN2c1nccc(Nc2cc3nc(-c4ccnc(N5CC[C@@H](F)C5)c4)sc3cn2)n1` [Example 267, N-(2-{2-[(3R)-3-Fluoropyrrolidin-1-yl]pyridin-4-yl}-[1,3]thiazolo[5,4-c]pyridin-6-yl)-2-[(1S,4S)-5-methyl-2,5-diazabicyclo[2.2.1]heptan-2-yl]pyrimidin-4-amine], which IC50 is on record?
A: The IC50 was less than 100 nM.

Q: `Cc1ccc(Nc2cc3nc(-c4cnccn4)sc3cn2)nc1CN1CCCC1` [Example 56, 5-Methyl-N-[2-(pyrazin-2-yl)-[1,3]thiazolo[5,4-c]pyridin-6-yl]-6-[(pyrrolidin-1-yl)methyl]pyridin-2-amine] was tested. Which IC50 did it give?
A: Its IC50 is 100 to 1000 nM.

Q: With `Cc1ccc(Nc2cc3nc(-n4nccc4C)sc3cn2)nc1N1CCNCC1` [Example 204, 5-Methyl-N-[2-(5-methyl-1H-pyrazol-1-yl)-[1,3]thiazolo[5,4-c]pyridin-6-yl]-6-(piperazin-1-yl)pyridin-2-amine] as the compound, how does the IC50 read?
A: The IC50 was less than 100 nM.

Q: `CN(C)C(=O)c1cc(-c2nc3cc(Nc4ccnc(N5C[C@@H]6C[C@H]5CN6C)n4)ncc3s2)ccn1` [Example 127, N,N-Dimethyl-4-[6-({2-[(1S,4S)-5-methyl-2,5-diazabicyclo[2.2.1]heptan-2-yl]pyrimidin-4-yl}amino)-[1,3]thiazolo[5,4-c]pyridin-2-yl]pyridine-2-carboxamide] was tested. Which IC50 did it give?
A: Its IC50 is less than 100 nM.

Q: Which IC50 does the source give for `Cc1ccc(Nc2cc3nc(-n4nccc4C)sc3cn2)nc1N1CC[C@H](O)C1` [Example 202, (3S)-1-(3-Methyl-6-{[2-(5-methyl-1H-pyrazol-1-yl)-[1,3]thiazolo[5,4-c]pyridin-6-yl]amino}pyridin-2-yl)pyrrolidin-3-ol] here?
A: Its IC50 is 100 to 1000 nM.

Q: With `COc1ccc(N2C[C@@H]3C[C@H]2CN3C)nc1Nc1cc2nc(-c3ncccc3C)sc2cn1` [Example 118, 3-Methoxy-6-[(1S,4S)-5-methyl-2,5-diazabicyclo[2.2.1]heptan-2 yl]-N-[2-(3-methylpyridin-2-yl)-[1,3]thiazolo[5,4-c]pyridin-6-yl]pyridin-2-amine] as the compound, how does the IC50 read?
A: Its IC50 is less than 100 nM.

Q: How did the IC50 turn out when `Cc1ccc(Nc2cc3nc(-c4ncccc4C)sc3cn2)nc1CN1CCC[C@@H]1C` [Example 45, 5-Methyl-N-[2-(3-methylpyridin-2-yl)-[1,3]thiazolo[5,4-c]pyridin-6-yl]-6-{[(2S)-2-methylpyrrolidin-1-yl]methyl}pyridin-2-amine] was run?
A: The IC50 was less than 100 nM.

Q: `Cc1cccnc1-c1nc2cc(Nc3ccc(C)c(N4C[C@@H](N)C[C@@H]4CO)n3)ncc2s1` [Example 68, [(4S)-4-Amino-1-(3-methyl-6-{[2-(3-methylpyridin-2-yl)-[1,3]thiazolo[5,4-c]pyridin-6-yl]amino}pyridin-2-yl)pyrrolidin-2-yl]methanol] was tested. Which IC50 did it give?
A: The IC50 was less than 100 nM.

Q: With `Cc1ncccc1-c1nc2cc(Nc3cccc(N4C[C@@H]5C[C@H]4CN5C)n3)ncc2s1` [Example 138, 6-[(1S,4S)-5-Methyl-2,5-diazabicyclo[2.2.1]heptan-2-yl]-N-[2-(2-methylpyridin-3-yl)-[1,3]thiazolo[5,4-c]pyridin-6-yl]pyridin-2-amine] as the compound, how does the IC50 read?
A: The IC50 was less than 100 nM.

Q: For `Cc1cccnc1-c1nc2cc(Nc3ccc(C4CCOCC4)c(C4CCNC4)n3)ncc2s1` (stereo not drawn) [Example 283, N-[2-(3-Methylpyridin-2-yl)-[1,3]thiazolo[5,4-c]pyridin-6-yl]-5-(oxan-4-yl)-6-(pyrrolidin-3-yl)pyridin-2-amine], which IC50 is on record?
A: The IC50 was less than 100 nM.

Q: For `O[C@@H]1CCN(c2nc3cc(Nc4ccc(C5CCOCC5)c(CN5CCCC5)n4)ncc3s2)C1` [Example 234, (3R)-1-(6-{[5-(Oxan-4-yl)-6-[(pyrrolidin-1-yl)methyl]pyridin-2-yl]amino}-[1,3]thiazolo[5,4-c]pyridin-2-yl)pyrrolidin-3-ol], which IC50 is on record?
A: The IC50 was 100 to 1000 nM.

Q: `Cc1cccnc1-c1nc2cc(Nc3cccc(N4CCN(C)[C@H](C)C4)n3)ncc2s1` [Example 104, 6-[(3R)-3,4-Dimethylpiperazin-1-yl]-N-[2-(3-methylpyridin-2-yl)-[1,3]thiazolo[5,4-c]pyridin-6-yl]pyridin-2-amine] was tested. Which IC50 did it give?
A: The IC50 was less than 100 nM.

Q: Which IC50 does the source give for `CN1C[C@@H]2C[C@H]1CN2c1ccnc(Nc2cc3nc(-c4cccc(C(=O)N5CCCC5)c4)sc3cn2)n1` [Example 245, 4-[(1S,4S)-5-Methyl-2,5-diazabicyclo[2.2.1]heptan-2-yl]-N-{2-[3-(pyrrolidine-1-carbonyl)phenyl]-[1,3]thiazolo[5,4-c]pyridin-6-yl}pyrimidin-2-amine] here?
A: The IC50 was 100 to 1000 nM.

Q: For `Cc1cc(Nc2cc3nc(-c4cc5n(n4)CC(=O)N(C(C)C)CC5)sc3cn2)nc(O[C@H]2CCNC2)c1` [Example 185, 2-(6-{[4-Methyl-6-((3S)-pyrrolidin-3-yloxy)pyridin-2-yl]amino}-[1,3]thiazolo[5,4-c]pyridin-2-yl)-6-(propan-2-yl)-4H,5H,6H,7H,8H-pyrazolo[1,5-d][1,4]diazepin-7-one], which IC50 is on record?
A: Its IC50 is 100 to 1000 nM.

Q: `Cc1ccc(Nc2cc3nc(-c4cccnc4)sc3cn2)nc1CN1CCCC1` [Example 53, 5-Methyl-N-[2-(pyridin-3-yl)-[1,3]thiazolo[5,4-c]pyridin-6-yl]-6-[(pyrrolidin-1-yl)methyl]pyridin-2-amine] was tested. Which IC50 did it give?
A: The IC50 was less than 100 nM.

Same assay, conditions: HPK1 ADP-Glo assay, low ATP (10 μM ATP, 2 nM HPK1); read-out: Biochemical Potency (low ATP)

Q: Which IC50 does the source give for `CN1C[C@@H]2C[C@H]1CN2c1nccc(Nc2cc3nc(-c4ccnc(N5CCC[C@@H](O)C5)c4)sc3cn2)n1` [Example 459] here?
A: Its IC50 is less than 100 nM.

Q: With `Cc1ccnn1-c1nc2cc(Nc3ccc4c(n3)C(C)(N)CCC4)ncc2s1` (stereo not drawn) [Example 580] as the compound, how does the IC50 read?
A: The IC50 was less than 100 nM.

Q: `Cc1cccnc1-c1nc2cc(Nc3ccc4c(n3)[C@@](C)(N)CCC4)ncc2s1` [Example 578] was tested. Which IC50 did it give?
A: Its IC50 is less than 100 nM.

Q: With `Cc1cccnc1-c1nc2cc(Nc3ccc4c(n3)[C@H](N)CC4)ncc2s1` [Example 582] as the compound, how does the IC50 read?
A: Its IC50 is less than 100 nM.

Q: Which IC50 does the source give for `Cc1cccnc1-c1nc2cc(Nc3ccc4c(n3)[C@@H](N)CCC4)ncc2s1` [Example 583] here?
A: Its IC50 is less than 100 nM.
